Assay results: patent US4061540A, “Cholesterol oxidaze and process for preparing same” (Kikkoman Shoyu Co., Ltd., priority 1975, dated 1977)

Tests used:
cholesterol oxidase [1] = assay: Action and substrate specificity: relative activity by hydrogen peroxide formation (peroxidase/4-aminoantipyrine/phenol, absorbance at 500 nm); format: biochemical, Corynebacterium cholesterolicum
Procedure: All the above-mentioned values of relative activity (%) refer to the relative amounts of hydrogen peroxide formed from the substances oxidized by cholesterol oxidase, where the activity to cholesterol is taken as 100. The activity was measured by the following procedure.
A substrate solution was prepared by mixing 50 microliter of a 0.38 micromolar solution of cholesterol in isopropanol with 3 milliliter of 0.1 M phosphate buffer (pH 7.0; it contains 0.82 millimoles of 4-aminoantipyrine, 14 millimoles of phenol, 0.17 millimoles of Carbowax 6000 and 0.3% Triton X-100). The resulting substrate solution was incubated for 5 minutes in a cell of light path, 10 mm, kept at 37° C.
50 microliter of an enzyme solution containing 2.5 U of peroxidase and 0.1 U of cholesterol oxidase was added. The increase in absorbance at 500 nm was measured at 37° C. The initial velocity was obtained from the increase in absorbance, from which the relative activity was computed. [Literature: Charles C. Allain, Lucy S. Poon, Cicely G. Chan, W. Richmond and Paul C. Fu, Clin. Chem. 20, 470 (1974)].

cholesterol oxidase [2] = assay: Km value by the ultraviolet absorption method; format: biochemical, Corynebacterium cholesterolicum
Procedure: (§1) Enzymatic activity was measured by ultraviolet absorption method [Clin. Chem. 20, 470 (1974)]. A substrate solution was prepared by dissolving 5 ml of a 300 mg/dl solution of cholesterol in isopropanol into 300 ml of phosphate buffer (pH 7.0) containing 0.05% of Triton X-100. 20 microliter of enzyme solution was added to 3.0 ml of the substrate solution, and the resulting mixture was reacted at 37° C for 15 minutes. Increase in the absorption at 240 nm, assignable to cholest-4-en-3-one resulting from the reaction, was measured.

cholesterol oxidase [3] = assay: Inhibition of the enzyme; format: biochemical, Corynebacterium cholesterolicum
[4] = Relative activities of various enzymes exhibited to pregnenolone and cholesterol; format: biochemical; conditions: ratio of activity to pregnenolone over cholesterol; source of values for known enzymes not stated
Description: This enzyme oxidizes the hydroxyl group of steroids at […], and exerts no action upon other position of hydroxyl groups, such as 3α, 17β, etc., nor upon ester groups.

[5] = Optimum pH and optimum temperature for the action of the enzyme; format: biochemical
Procedure: The optimum pH is in the vicinity of 7.0 when the substrate is cholesterol.
When the reaction time is 15 minutes, the optimum temperature is 40° C.
as §1

[6] = format: physicochemical; conditions: treated at 30° C for 1 hour
Procedure: It keeps stable in the pH range of 5-9 when treated at 30° C for 1 hour.

[7] = Isoelectric point by isoelectric focusing; format: physicochemical; conditions: pH, carrier ampholyte pH 3-10, 900 V, 50 hours, 4° C
Procedure: The enzyme has an isoelectric point of pH 8.7, as measured by the method of isoelectric focusing. Thus, 10 mg of a purified enzyme was introduced into a 110 ml column packed with a carried ampholyte kept at pH 3-10 [LKB-Producter, commercial name of a product manufactured by AB Co.; cf. Biochem. Biophys. Acta, 133, 435 (1967)]. An electric current was passed at a voltage of 900 V for a period of 50 hours, while the column was cooled to 4° C.

[8] = relative amounts of hydrogen peroxide formed, activity to cholesterol taken as 100, initial velocity, 37° C, pH 7.0

Row | Compound | Relative activity (%) (cholesterol oxidase [1]; [8]) | also measured
1 | CC(=O)[C@H]1CC[C@H]2[C@@H]3CC=C4C[C@@H](O)CC[C@]4(C)[C@H]3CC[C@]12C [Pregnenolone] | 416% | Km (cholesterol oxidase [2]): 31 µM
2 | C[C@]12CC[C@H](O)CC1=CC[C@@H]1[C@@H]2CC[C@]2(C)C(=O)CC[C@@H]12 [Dehydro-epiandrosterone] | 57% | 
3 | CC[C@H](CC[C@@H](C)[C@H]1CC[C@H]2[C@@H]3CC=C4C[C@@H](O)CC[C@]4(C)[C@H]3CC[C@]12C)C(C)C [β-Sitosterol] | 54% | 
4 | O=C(O)CN(CCN(CC(=O)O)CC(=O)O)CC(=O)O [EDTA] |  | Inhibition of the enzyme (in words) (cholesterol oxidase [3]): not inhibited
5 | C[C@H](CCC(=O)O)[C@H]1CC[C@H]2[C@@H]3[C@H](O)C[C@@H]4C[C@H](O)CC[C@]4(C)[C@H]3C[C@H](O)[C@]12C [Cholic acid] | 0% | 
6 | [Ag+] [Ag^+] |  | Inhibition of the enzyme (in words) (cholesterol oxidase [3]): inhibited
7 | Oc1cccc2cccnc12 [8-hydroxyquinoline] |  | Inhibition of the enzyme (in words) (cholesterol oxidase [3]): not inhibited
8 | CC(C)[C@@H](C)/C=C/[C@@H](C)[C@H]1CC[C@H]2C3=CC=C4C[C@@H](O)CC[C@]4(C)[C@H]3CC[C@]12C [Ergosterol] | 13% | 
9 | C[C@]12CC[C@H](O)C[C@H]1CC[C@@H]1[C@@H]2CC[C@]2(C)[C@@H](C3=CC(=O)OC3)CC[C@]12O [Digitoxigenin] | 0% | 
10 | C[C@]12CC[C@H]3[C@@H](CCC4=CC(=O)CC[C@@]43C)[C@@H]1CC[C@@H]2O [Testosterone] | 0% | 
11 | cholesterol oxidase |  | relative activities exhibited to pregnenolone and cholesterol [4]: 4.16; optimum temperature for the action ([5]; reaction time 15 minutes): 40 °C; Optimum pH ([5]; substrate is cholesterol): ~7.0; pH range in which it keeps stable [6]: 5-9; isoelectric point [7]: 8.7
12 | CC(C)CCC[C@@H](C)[C@H]1CC[C@H]2[C@@H]3CC=C4C[C@@H](O)CC[C@]4(C)[C@H]3CC[C@]12C [Cholesterol] | 100% | Km (cholesterol oxidase [2]): 54 µM
13 | C=C1CC[C@H](O)C/C1=C/C=C1\CCC[C@]2(C)[C@@H]([C@H](C)CCCC(C)C)CC[C@@H]12 [Vitamin D3] | 0% | 
14 | [Hg+2] [Hg^2+] |  | Inhibition of the enzyme (in words) (cholesterol oxidase [3]): inhibited
15 | C[C@]12CC[C@@H](O)C[C@@H]1CC[C@@H]1[C@@H]2CC[C@]2(C)C(=O)CC[C@@H]12 [Androsterone] |  | Relative activity (%) (cholesterol oxidase [1]; pH 7): 0%
16 | C[C@]12CC[C@@H]3c4ccc(O)cc4CC[C@H]3[C@@H]1CC[C@@H]2O [β-Estradiol] | 0% | 
17 | CC(=O)O[C@H]1CC[C@@]2(C)C(=CC[C@H]3[C@@H]4CC[C@H]([C@H](C)CCCC(C)C)[C@@]4(C)CC[C@@H]32)C1 [Cholesterol acetate] | 0% | 
18 | O=C(O)c1cc[c]([Hg][Cl])cc1 [p-chloromercuribenzoate] |  | Inhibition of the enzyme (in words) (cholesterol oxidase [3]): inhibited
19 | c1cnc2c(c1)ccc1cccnc12 [o-phenanthroline] |  | Inhibition of the enzyme (in words) (cholesterol oxidase [3]): not inhibited
20 | CC(C)CCC[C@@H](C)[C@H]1CC[C@H]2[C@@H]3CC[C@H]4C[C@@H](O)CC[C@]4(C)[C@H]3CC[C@]12C [β-Cholestanol] | 43% | 
21 | C[C@@H]1CC[C@@]2(OC1)O[C@H]1C[C@H]3[C@@H]4CC=C5C[C@@H](O)CC[C@]5(C)[C@H]4CC[C@]3(C)[C@H]1[C@@H]2C [Diosgenin] | 0% | 
22 | CC[C@H](/C=C/[C@@H](C)[C@H]1CC[C@H]2[C@@H]3CC=C4C[C@@H](O)CC[C@]4(C)[C@H]3CC[C@]12C)C(C)C [Stigmasterol] | 17% | 
